Test results from the supplement of paper PMC10307832.

Columns and labels:
Test in all cases: relative viability (nuclei count vs DMSO), 5 days (fraction); higher = more cells survive
NCI-H1944 = system: NCI-H1944
Summary of the method: (§1)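 Dosing by pin tool came one day after lung cancer cell lines were seeded in 1536-well plates, using either one drug or a fixed anchor-drug dose plus five library-drug doses (not always all listed) in √10 steps. After 5 days, nuclei were counted on 4× images. Relative viability is treated-well nuclei count divided by vehicle-well nuclei count, and values are medians of duplicate plates.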

NCI-H661 = system: NCI-H661
Summary of the method: as §1

NCI-H441 = system: NCI-H441
Summary of the method: as §1

LCLC-103H = system: LCLC-103H
Summary of the method: as §1

NCI-H1355 = system: NCI-H1355
Summary of the method: as §1

LXF-289 = system: LXF-289
Summary of the method: as §1

NCI-H1993 = system: NCI-H1993
Summary of the method: as §1

ChaGo-K-1 = system: ChaGo-K-1
Summary of the method: as §1

LK-2 = system: LK-2
Summary of the method: as §1

NCI-H727 = system: NCI-H727
Summary of the method: as §1

NCI-H647 = system: NCI-H647
Summary of the method: as §1

HCC-827 = system: HCC-827
Summary of the method: as §1

NCI-H2170 = system: NCI-H2170
Summary of the method: as §1

RERF-LC-KJ = system: RERF-LC-KJ
Summary of the method: as §1

SK-MES-1 = system: SK-MES-1
Summary of the method: as §1

BEN = system: BEN
Summary of the method: as §1

NCI-H1666 = system: NCI-H1666
Summary of the method: as §1

HOP-62 = system: HOP-62
Summary of the method: as §1

EKVX = system: EKVX
Summary of the method: as §1

LOU-NH91 = system: LOU-NH91
Summary of the method: as §1

NCI-H1437 = system: NCI-H1437
Summary of the method: as §1

NCI-H2126 = system: NCI-H2126
Summary of the method: as §1

PC-14 = system: PC-14
Summary of the method: as §1

Compound: Cc1cn(-c2cc(NC(=O)c3ccc(C)c(Nc4nccc(-c5cccnc5)n4)c3)cc(C(F)(F)F)c2)cn1 [Nilotinib] + O=C(CCCCCCC(=O)Nc1ccccc1)NO [Vorinostat] (partner 1 µM)
- relative viability (NCI-H1944; first compound 0.001 µM): 0.558
- relative viability (NCI-H1944; first compound 0.003162 µM): 0.795
- relative viability (NCI-H1944; first compound 0.01 µM): 0.671
- relative viability (NCI-H1944; first compound 0.03162 µM): 0.481
- relative viability (NCI-H1944; first compound 0.1 µM): 0.457
- relative viability (NCI-H661; first compound 0.001 µM): 0.792
- relative viability (NCI-H661; first compound 0.003162 µM): 0.889
- relative viability (NCI-H661; first compound 0.01 µM): 0.875
- relative viability (NCI-H661; first compound 0.03162 µM): 0.642
- relative viability (NCI-H661; first compound 0.1 µM): 0.615
- relative viability (NCI-H441; first compound 0.001 µM): 0.544
- relative viability (NCI-H441; first compound 0.003162 µM): 1.02
- relative viability (NCI-H441; first compound 0.01 µM): 0.742
- relative viability (NCI-H441; first compound 0.03162 µM): 0.532
- relative viability (NCI-H441; first compound 0.1 µM): 0.71
- relative viability (LCLC-103H; first compound 0.001 µM): 0.74
- relative viability (LCLC-103H; first compound 0.003162 µM): 0.823
- relative viability (LCLC-103H; first compound 0.01 µM): 0.858
- relative viability (LCLC-103H; first compound 0.03162 µM): 0.691
- relative viability (LCLC-103H; first compound 0.1 µM): 0.433
- relative viability (NCI-H1355; first compound 0.001 µM): 0.6
- relative viability (NCI-H1355; first compound 0.003162 µM): 0.695
- relative viability (NCI-H1355; first compound 0.01 µM): 0.67
- relative viability (NCI-H1355; first compound 0.03162 µM): 0.59
- relative viability (NCI-H1355; first compound 0.1 µM): 0.335
- relative viability (LXF-289; first compound 0.001 µM): 0.693
- relative viability (LXF-289; first compound 0.003162 µM): 0.994
- relative viability (LXF-289; first compound 0.01 µM): 0.882
- relative viability (LXF-289; first compound 0.03162 µM): 0.869
- relative viability (LXF-289; first compound 0.1 µM): 0.534
- relative viability (NCI-H1993; first compound 0.001 µM): 0.6
- relative viability (NCI-H1993; first compound 0.003162 µM): 0.655
- relative viability (NCI-H1993; first compound 0.01 µM): 0.843
- relative viability (NCI-H1993; first compound 0.03162 µM): 0.722
- relative viability (NCI-H1993; first compound 0.1 µM): 0.497
- relative viability (ChaGo-K-1; first compound 0.001 µM): 0.654
- relative viability (ChaGo-K-1; first compound 0.003162 µM): 0.979
- relative viability (ChaGo-K-1; first compound 0.01 µM): 0.804
- relative viability (ChaGo-K-1; first compound 0.03162 µM): 0.733
- relative viability (ChaGo-K-1; first compound 0.1 µM): 0.4
- relative viability (LK-2; first compound 0.001 µM): 0.261
- relative viability (LK-2; first compound 0.003162 µM): 0.23
- relative viability (LK-2; first compound 0.01 µM): 0.342
- relative viability (LK-2; first compound 0.03162 µM): 0.199
- relative viability (LK-2; first compound 0.1 µM): 0.27
- relative viability (NCI-H727; first compound 0.001 µM): 1.12
- relative viability (NCI-H727; first compound 0.003162 µM): 1.35
- relative viability (NCI-H727; first compound 0.01 µM): 1.16
- relative viability (NCI-H727; first compound 0.03162 µM): 1.15
- relative viability (NCI-H727; first compound 0.1 µM): 1.05
- relative viability (NCI-H647; first compound 0.001 µM): 0.433
- relative viability (NCI-H647; first compound 0.003162 µM): 0.671
- relative viability (NCI-H647; first compound 0.01 µM): 0.418
- relative viability (NCI-H647; first compound 0.03162 µM): 0.314
- relative viability (NCI-H647; first compound 0.1 µM): 0.245
- relative viability (HCC-827; first compound 0.001 µM): 0.835
- relative viability (HCC-827; first compound 0.003162 µM): 0.983
- relative viability (HCC-827; first compound 0.03162 µM): 0.857
- relative viability (HCC-827; first compound 0.1 µM): 0.822
- relative viability (NCI-H2170; first compound 0.001 µM): 0.818
- relative viability (NCI-H2170; first compound 0.003162 µM): 1.16
- relative viability (NCI-H2170; first compound 0.01 µM): 1.05
- relative viability (NCI-H2170; first compound 0.03162 µM): 0.622
- relative viability (NCI-H2170; first compound 0.1 µM): 0.877
- relative viability (RERF-LC-KJ; first compound 0.001 µM): 0.624
- relative viability (RERF-LC-KJ; first compound 0.003162 µM): 0.698
- relative viability (RERF-LC-KJ; first compound 0.01 µM): 0.734
- relative viability (RERF-LC-KJ; first compound 0.03162 µM): 0.568
- relative viability (RERF-LC-KJ; first compound 0.1 µM): 0.453
- relative viability (SK-MES-1; first compound 0.001 µM): 1.12
- relative viability (SK-MES-1; first compound 0.003162 µM): 0.623
- relative viability (SK-MES-1; first compound 0.01 µM): 1.33
- relative viability (SK-MES-1; first compound 0.03162 µM): 0.936
- relative viability (SK-MES-1; first compound 0.1 µM): 0.618
- relative viability (BEN; first compound 0.001 µM): 0.532
- relative viability (BEN; first compound 0.003162 µM): 0.556
- relative viability (BEN; first compound 0.01 µM): 0.723
- relative viability (BEN; first compound 0.03162 µM): 0.642
- relative viability (BEN; first compound 0.1 µM): 0.574
- relative viability (NCI-H1666; first compound 0.001 µM): 0.942
- relative viability (NCI-H1666; first compound 0.003162 µM): 1.11
- relative viability (NCI-H1666; first compound 0.01 µM): 1.17
- relative viability (NCI-H1666; first compound 0.03162 µM): 1.11
- relative viability (NCI-H1666; first compound 0.1 µM): 1.17
- relative viability (HOP-62; first compound 0.001 µM): 0.625
- relative viability (HOP-62; first compound 0.003162 µM): 0.567
- relative viability (HOP-62; first compound 0.01 µM): 0.631
- relative viability (HOP-62; first compound 0.03162 µM): 0.479
- relative viability (EKVX; first compound 0.001 µM): 0.65
- relative viability (EKVX; first compound 0.003162 µM): 0.879
- relative viability (EKVX; first compound 0.01 µM): 0.704
- relative viability (EKVX; first compound 0.03162 µM): 0.55
- relative viability (EKVX; first compound 0.1 µM): 0.718
- relative viability (LOU-NH91; first compound 0.001 µM): 1.03
- relative viability (LOU-NH91; first compound 0.003162 µM): 0.936
- relative viability (LOU-NH91; first compound 0.01 µM): 0.946
- relative viability (LOU-NH91; first compound 0.03162 µM): 0.898
- relative viability (LOU-NH91; first compound 0.1 µM): 0.882
- relative viability (NCI-H1437; first compound 0.001 µM): 0.664
- relative viability (NCI-H1437; first compound 0.003162 µM): 0.97
- relative viability (NCI-H1437; first compound 0.01 µM): 0.878
- relative viability (NCI-H1437; first compound 0.03162 µM): 0.506
- relative viability (NCI-H1437; first compound 0.1 µM): 0.583
- relative viability (NCI-H2126; first compound 0.001 µM): 0.754
- relative viability (NCI-H2126; first compound 0.003162 µM): 0.888
- relative viability (NCI-H2126; first compound 0.01 µM): 0.864
- relative viability (NCI-H2126; first compound 0.03162 µM): 0.764
- relative viability (NCI-H2126; first compound 0.1 µM): 0.476
- relative viability (PC-14; first compound 0.001 µM): 0.594
- relative viability (PC-14; first compound 0.003162 µM): 0.378
- relative viability (PC-14; first compound 0.01 µM): 0.756
- relative viability (PC-14; first compound 0.03162 µM): 0.604
- relative viability (PC-14; first compound 0.1 µM): 0.156
